# Measured values reported in patent publication US9492460B2, “Carbazole compounds useful as bromodomain inhibitors” (Bristol-Myers Squibb Company, priority 2013, dated 2016).
# Target: T1, bromodomain BRD4 (44-168), BRD4 (333-460), and BRD4 (1-477 or 44-460) (Homo sapiens, UniProt O60885)
# T1 construct: BRD4(44-168), BRD4(333-460), BRD4(44-460), BRD4(1-477), O60885-1; fused on or other part: N-terminal BirA biotinylation motif, biotinylated; The TVMV-cleavable His6 tag is removed, except in some BRD4(44-460) runs detected with anti-His terbium cryptate
# Experiment: Time Resolved Fluorescence Resonance Energy Transfer (TR-FRET) binding assay
# Conditions: one of the FRET assays described
row,SMILES,IC50 [µM]
1,"CCn1c2ccc(C(=O)N3C[C@@H](C)O[C@@H](C)C3)cc2c2ccc(-c3c(C)noc3C)cc21 [Example 2, 2-(3,5-dimethyl-4-isoxazolyl)-6-((cis-2,6-dimethyl-4-morpholinyl)carbonyl)-9-ethyl-9H-carbazole]",< 0.5
2,CCCn1c2ccc(C(=O)N3CC(C)OC(C)C3)cc2c2ccc(-c3c(C)noc3C)cc21 (stereo not drawn) [Example 3],< 0.5
3,Cc1noc(C)c1-c1ccc2c3cc(C(=O)N4CC(C)OC(C)C4)ccc3n(CC(C)C)c2c1 (stereo not drawn) [Example 4],< 0.5
4,Cc1noc(C)c1-c1ccc2c3cc(C(=O)N4CC(C)OC(C)C4)ccc3n(CC3CC3)c2c1 (stereo not drawn) [Example 5],< 0.5
5,Cc1noc(C)c1-c1ccc2c3cc(C(=O)N4CC(C)OC(C)C4)ccc3n(CCF)c2c1 (stereo not drawn) [Example 6],< 0.5
6,Cc1noc(C)c1-c1ccc2c3cc(C(=O)N4CC(C)OC(C)C4)ccc3n(CC(F)F)c2c1 (stereo not drawn) [Example 7],< 0.5
7,COCCn1c2ccc(C(=O)N3CC(C)OC(C)C3)cc2c2ccc(-c3c(C)noc3C)cc21 (stereo not drawn) [Example 8],< 0.5
8,Cc1noc(C)c1-c1ccc2c3cc(C(=O)N4CC(C)OC(C)C4)ccc3n(Cc3ccccc3Cl)c2c1 (stereo not drawn) [Example 11],< 0.5
9,Cc1noc(C)c1-c1ccc2c3cc(C(=O)N4CC(C)OC(C)C4)ccc3n(Cc3ccc(Cl)cc3)c2c1 (stereo not drawn) [Example 12],< 0.5
10,Cc1noc(C)c1-c1ccc2c3cc(C(=O)N4CC(C)OC(C)C4)ccc3n(Cc3cccc(Cl)c3)c2c1 (stereo not drawn) [Example 13],< 0.5
11,COc1cccc(Cn2c3ccc(C(=O)N4CC(C)OC(C)C4)cc3c3ccc(-c4c(C)noc4C)cc32)c1 (stereo not drawn) [Example 14],< 0.5
12,COc1ccccc1Cn1c2ccc(C(=O)N3CC(C)OC(C)C3)cc2c2ccc(-c3c(C)noc3C)cc21 (stereo not drawn) [Example 15],< 0.5
13,Cc1noc(C)c1-c1ccc2c3cc(C(=O)N4CC(C)OC(C)C4)ccc3n(Cc3ccccc3F)c2c1 (stereo not drawn) [Example 16],< 7.5
14,Cc1noc(C)c1-c1ccc2c3cc(C(=O)N4CC(C)OC(C)C4)ccc3n(Cc3cccc(F)c3)c2c1 (stereo not drawn) [Example 17],< 0.5
15,Cc1noc(C)c1-c1ccc2c3cc(C(=O)N4CC(C)OC(C)C4)ccc3n(Cc3ccc(F)cc3)c2c1 (stereo not drawn) [Example 18],< 0.5
16,Cc1ccccc1Cn1c2ccc(C(=O)N3CC(C)OC(C)C3)cc2c2ccc(-c3c(C)noc3C)cc21 (stereo not drawn) [Example 19],< 0.5
17,Cc1cccc(Cn2c3ccc(C(=O)N4CC(C)OC(C)C4)cc3c3ccc(-c4c(C)noc4C)cc32)c1 (stereo not drawn) [Example 20],< 0.5
18,Cc1ccc(Cn2c3ccc(C(=O)N4CC(C)OC(C)C4)cc3c3ccc(-c4c(C)noc4C)cc32)cc1 (stereo not drawn) [Example 21],< 0.5

row,SMILES,IC50 [µM]
1,"Cc1noc(C)c1-c1ccc2c3cc(C(=O)N4CCOCC4)ccc3n(CC3CC3)c2c1 [Example 22, 9-(cyclopropylmethyl)-2-(3,5-dimethyl-4-isoxazolyl)-6-(4-morpholinylcarbonyl)-9H-carbazole]",< 0.5
2,"Cc1noc(C)c1-c1ccc2c3cc(C(=O)N4C[C@@H](C)O[C@@H](C)C4)ccc3n(S(C)(=O)=O)c2c1 [Example 23, 2-(3,5-dimethyl-4-isoxazolyl)-6-((cis-2,6-dimethyl-4-morpholinyl)carbonyl)-9-(methylsulfonyl)-9H-carbazole]",< 7.5
3,"Cc1noc(C)c1-c1ccc2c3cc(C(=O)N4C[C@@H](C)O[C@@H](C)C4)ccc3n(C(=O)c3ccccc3)c2c1 [Example 24, 9-benzoyl-2-(3,5-dimethyl-4-isoxazolyl)-6-((cis-2,6-dimethyl-4-morpholinyl)carbonyl)-9H-carbazole]",< 0.5
4,"Cc1noc(C)c1-c1cc(C(N)=O)c2c(c1)[nH]c1ccc(C(=O)N3C[C@@H](C)O[C@@H](C)C3)cc12 [Example 25, 2-(3,5-dimethyl-4-isoxazolyl)-6-((cis-2,6-dimethyl-4-morpholinyl)carbonyl)-9H-carbazole-4-carboxamide]",< 0.5
5,Cc1noc(C)c1-c1cc(C(N)=O)c2c3cc(C(=O)N4CC(C)OC(C)C4)ccc3n(Cc3ncco3)c2c1 (stereo not drawn) [Example 29],< 0.5
6,Cc1noc(C)c1-c1cc(C(N)=O)c2c3cc(C(=O)N4CC(C)OC(C)C4)ccc3n(Cc3ccncn3)c2c1 (stereo not drawn) [Example 38],< 0.5
7,"Cc1noc(C)c1-c1cc(C(N)=O)c2c3cc(C(=O)N4C[C@@H](C)O[C@@H](C)C4)ccc3n(S(=O)(=O)c3ccccc3)c2c1 [Example 45, 2-(3,5-dimethylisoxazol-4-yl)-6-(cis-2,6-dimethylmorpholine-4-carbonyl)-9-(phenylsulfonyl)-9H-carbazole-4-carboxamide]",< 7.5
8,"Cc1noc(C)c1-c1cc(C(N)=O)c2c3cc(C(=O)N4C[C@@H](C)O[C@@H](C)C4)ccc3n(C(=O)c3ccccc3)c2c1 [Example 46, 9-benzoyl-2-(3,5-dimethylisoxazol-4-yl)-6-(cis-2,6-dimethylmorpholine-4-carbonyl)-9H-carbazole-4-carboxamide]",< 0.5
9,Cc1noc(C)c1-c1cc(C(N)=O)c2c3cc(C(=O)N4CCOCC4(C)C)ccc3n(Cc3ccccc3)c2c1 [Example 49],< 7.5
10,COC1CN(C(=O)c2ccc3c(c2)c2c(C(N)=O)cc(-c4c(C)noc4C)cc2n3Cc2ccccc2)C1 [Example 52],< 0.05
11,Cc1noc(C)c1-c1cc(C(N)=O)c2c3cc(C(=O)N4CC(O)C4)ccc3n(Cc3ccccc3)c2c1 [Example 53],< 0.05
12,Cc1noc(C)c1-c1cc(C(N)=O)c2c3cc(C(=O)N4CCC4C)ccc3n(Cc3ccccc3)c2c1 (stereo not drawn) [Example 54],< 0.05
13,Cc1noc(C)c1-c1cc(C(N)=O)c2c3cc(C(=O)N4CCOC(C)C4)ccc3n(Cc3ccccc3)c2c1 (stereo not drawn) [Example 55],< 0.05
14,Cc1noc(C)c1-c1cc(C(N)=O)c2c3cc(C(=O)N4CCCOCC4)ccc3n(Cc3ccccc3)c2c1 [Example 56],< 0.05
15,Cc1noc(C)c1-c1cc(C(N)=O)c2c3cc(C(=O)N4CCO[C@@H](C)C4)ccc3n(Cc3ccccc3)c2c1 [Example 57],< 0.05
16,Cc1noc(C)c1-c1cc(C(N)=O)c2c3cc(C(=O)N4CCC(C)(C)C4)ccc3n(Cc3ccccc3)c2c1 [Example 58],< 0.05
17,Cc1noc(C)c1-c1cc(C(N)=O)c2c3cc(C(=O)N4CC[C@H](F)C4)ccc3n(Cc3ccccc3)c2c1 [Example 59],< 0.05

# More lines, now with the values ahead:
row,IC50 [µM],SMILES
1,< 0.05,Cc1noc(C)c1-c1ccc2c3cc(C(=O)N4CC(C)OC(C)C4)ccc3n(Cc3ccccc3)c2c1 (stereo not drawn) [Example 9]
2,< 0.05,"Cc1noc(C)c1-c1cc(C(N)=O)c2c3cc(C(=O)N4C[C@@H](C)O[C@@H](C)C4)ccc3n(CC3CCC3)c2c1 [Example 26, 9-(cyclobutylmethyl)-2-(3,5-dimethyl-4-isoxazolyl)-6-((cis-2,6-dimethyl-4-morpholinyl)carbonyl)-9H-carbazole-4-carboxamide]"
3,< 0.05,Cc1noc(C)c1-c1cc(C(N)=O)c2c3cc(C(=O)N4CC(C)OC(C)C4)ccc3n(Cc3cscn3)c2c1 (stereo not drawn) [Example 27]
4,< 0.05,Cc1csc(Cn2c3ccc(C(=O)N4CC(C)OC(C)C4)cc3c3c(C(N)=O)cc(-c4c(C)noc4C)cc32)n1 (stereo not drawn) [Example 28]
5,< 0.05,Cc1noc(C)c1-c1cc(C(N)=O)c2c3cc(C(=O)N4CC(C)OC(C)C4)ccc3n(Cc3nccs3)c2c1 (stereo not drawn) [Example 30]
6,< 0.05,Cc1noc(C)c1-c1cc(C(N)=O)c2c3cc(C(=O)N4CC(C)OC(C)C4)ccc3n(Cc3ccccc3F)c2c1 (stereo not drawn) [Example 31]
7,< 0.05,Cc1noc(C)c1-c1cc(C(N)=O)c2c3cc(C(=O)N4CC(C)OC(C)C4)ccc3n(Cc3ccc(F)cc3)c2c1 (stereo not drawn) [Example 32]
8,< 0.05,Cc1noc(C)c1-c1cc(C(N)=O)c2c3cc(C(=O)N4CC(C)OC(C)C4)ccc3n(Cc3ccccc3Cl)c2c1 (stereo not drawn) [Example 33]
9,< 0.05,Cc1noc(C)c1-c1cc(C(N)=O)c2c3cc(C(=O)N4CC(C)OC(C)C4)ccc3n(Cc3cccc(Cl)c3)c2c1 (stereo not drawn) [Example 34]
10,< 0.05,Cc1noc(C)c1-c1cc(C(N)=O)c2c3cc(C(=O)N4CC(C)OC(C)C4)ccc3n(Cc3ccc(Cl)cc3)c2c1 (stereo not drawn) [Example 35]
11,< 0.05,Cc1noc(C)c1-c1cc(C(N)=O)c2c3cc(C(=O)N4CC(C)OC(C)C4)ccc3n(Cc3ccc(F)cc3F)c2c1 (stereo not drawn) [Example 36]
12,< 0.05,Cc1noc(C)c1-c1cc(C(N)=O)c2c3cc(C(=O)N4CC(C)OC(C)C4)ccc3n(Cc3ccc(C#N)cc3)c2c1 (stereo not drawn) [Example 37]
13,< 0.05,Cc1noc(C)c1-c1cc(C(N)=O)c2c3cc(C(=O)N4CC(C)OC(C)C4)ccc3n(C(C)c3ccccc3)c2c1 (stereo not drawn) [Example 39]
14,< 0.05,COc1ccccc1Cn1c2ccc(C(=O)N3CC(C)OC(C)C3)cc2c2c(C(N)=O)cc(-c3c(C)noc3C)cc21 (stereo not drawn) [Example 40]
15,< 0.05,Cc1noc(C)c1-c1cc(C(N)=O)c2c3cc(C(=O)N4CC(C)OC(C)C4)ccc3n(Cc3cccc(F)c3F)c2c1 (stereo not drawn) [Example 41]
16,< 0.05,Cc1noc(C)c1-c1cc(C(N)=O)c2c3cc(C(=O)N4CC(C)OC(C)C4)ccc3n(Cc3cc(F)ccc3F)c2c1 (stereo not drawn) [Example 42]
17,< 0.05,Cc1noc(C)c1-c1cc(C(N)=O)c2c3cc(C(=O)N4CC(C)OC(C)C4)ccc3n(Cc3ccccc3C#N)c2c1 (stereo not drawn) [Example 43]
18,< 0.05,Cc1noc(C)c1-c1cc(C(N)=O)c2c3cc(C(=O)N4CC(C)OC(C)C4)ccc3n(Cc3cccc(C#N)c3)c2c1 (stereo not drawn) [Example 44]
19,< 0.05,"Cc1noc(C)c1-c1cc(C(N)=O)c2c3cc(C(=O)N4CCOCC4)ccc3n(Cc3ccccc3)c2c1 [Example 47, 9-benzyl-2-(3,5-dimethyl-4-isoxazolyl)-6-(4-morpholinylcarbonyl)-9H-carbazole-4-carboxamide]"
20,< 0.05,Cc1noc(C)c1-c1cc(C(N)=O)c2c3cc(C(=O)N(C)C)ccc3n(Cc3ccccc3)c2c1 [Example 48]
21,< 0.05,CCC1CCN(C(=O)c2ccc3c(c2)c2c(C(N)=O)cc(-c4c(C)noc4C)cc2n3Cc2ccccc2)CC1 [Example 50]
22,< 0.05,Cc1noc(C)c1-c1cc(C(N)=O)c2c3cc(C(=O)N4CCC(C)(O)CC4)ccc3n(Cc3ccccc3)c2c1 [Example 51]
